Measurements from PMC5442318, “Hundreds of dual-stage antimalarial molecules discovered by a functional gametocyte screen” (Nature Communications, 2017).
Like-named read-outs stand apart in the source and are kept apart here.

Assays:
[1] = tested on: P. falciparum stage V female gametocytes; assay: P. falciparum female gametocyte activation assay (Pf FGAA), 24 h or 48 h preincubation, Pfs25 expression readout; format: cell-based, Plasmodium falciparum NF54; conditions: for Pf FGAA classification: SLOW / FAST / GAMETE from activity at 48h, 24h, 0h incubation
Summary of the method: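 Female activation, triggered by xanthurenic acid and cooling, was scored by imaging Cy3-labelled anti-Pfs25 female gametes after 24 h at 26 °C. Beforehand, purified NF54 stage V gametocytes had been incubated with compound for either 24 h or 48 h (37 °C, 3% O2). Values are pIC50 from full-curve regression.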

[2] = tested on: P. falciparum female gametes; assay: Pf FGAA with compounds added 30 min after triggering gametocyte activation (gamete-targeting); format: cell-based, Plasmodium falciparum NF54; conditions: 0h incubation time
[3] = tested on: P. falciparum stages IV–V gametocytes; assay: Gametocytocidal ATP-depletion assay (gametocyte ATP bioluminescence); format: cell-based, Plasmodium falciparum; conditions: for inhibition at 2 µM: Plasmodium falciparum, mean
Summary of the method: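 Read-out is luciferase luminescence of parasite ATP (BacTiter-Glo), standing in for viability. Double-purified mature stage IV–V gametocytes, 12,500 per well, were exposed 48 h at 37 °C in low-O2 gas; screening concentration 2 μM.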

HepG2 cells = assay: HepG2 cytotoxicity assay; format: cell-based
Summary of the method: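 Once incubation ended, the HepG2 plates were warmed to room temperature for 30 min alongside the CellTiter-Glo reagent. Luminescent signal was developed by reagent addition and stabilized for 10 min before plate reading.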

[4] = tested on: P. falciparum asexual blood stages; conditions: ref 1 (Gamo, F. J. et al., Nature 465, 305-310, 2010), cited from earlier work; for IC50: TCAMS asexual blood stage data, read-out: Pf Asexual blood stages XC50; for Pf Asexual stages XC50: TCAMS data
[5] = Plasmodium falciparum, 24h incubation time, read-out: Pf FGAA IC50 (µM) 24h
[6] = Plasmodium falciparum, P. falciparum female gametocytes, mean, read-out: Gametocytes mean Pf FGAA IC50
[7] = HepG2 TOX50 versus Pf FGAA IC50
[8] = 24h incubation time, read-out: Pf FGAA IC50 (µM) 24h
[9] = P. falciparum female gametocytes, mean, read-out: Gametocytes mean Pf FGAA IC50
[10] = mean, P. falciparum female gametocyte activation assay, read-out: Gametocytes mean Pf FGAA IC50

| Compound | IC50 [4] [nM] | Gametocytes mean ATP inhibition at 2µM [3] [%] | IC50 [1, 10] [µM] | HepG2 cells mean TOX50 (HepG2 cells; mean; HepG2 cells) [µM] | further results |
| --- | --- | --- | --- | --- | --- |
| CCCC(=O)NC(c1ccc(C)cc1)c1ccc2cccnc2c1O (stereo not drawn) [TCMDC-123605] | 960 |  |  |  | IC50 [1, 5]: 1 µM; IC50 [1, 6]: 1.73 µM; Pf FGAA classification [1]: FAST; IC50 ([2]; Plasmodium falciparum): 3.99 µM; inhibition at 2 µM [3]: 20.2%; Selectivity ratio (HepG2 cells; [7]): 5.32; HepG2 cells mean TOX50 (HepG2 cells; HepG2 cells; mean): 9.22 µM; Pf Asexual stages XC50 [4]: 960 nM |
| N#CC(c1ccc(Br)cc1)c1ccc2c(C(F)(F)F)cc(C(F)(F)F)nc2n1 (stereo not drawn) [TCMDC-123754] | 440 |  |  |  | IC50 [1, 5]: > 20 µM; IC50 [1, 6]: 1.16 µM; Pf FGAA classification [1]: SLOW; IC50 ([2]; Plasmodium falciparum): > 20 µM; inhibition at 2 µM [3]: -2.55%; Selectivity ratio (HepG2 cells; [7]): 2.01; HepG2 cells mean TOX50 (HepG2 cells; HepG2 cells; mean): 2.32 µM; Pf Asexual stages XC50 [4]: 440 nM |
| Clc1ccc(-c2csc3ncnc(Cl)c23)cc1 [TCMDC-123811] | 460 | -1.98 |  |  | IC50 [1, 8]: 3.25 µM; IC50 [1, 9]: 1.57 µM; Pf FGAA classification [1]: SLOW; IC50 [2]: > 20 µM; HepG2 cells mean TOX50 (HepG2 cells; HepG2 cells; mean): 94.46 µM; Pf Asexual stages XC50 [4]: 460 nM |
| O=C(Nc1nc(-c2ccccn2)cs1)c1ccc(Br)s1 [TCMDC-123868] | 1060 | 29.36 |  |  | IC50 [1, 8]: 0.14 µM; IC50 [1, 9]: 1.16 µM; Pf FGAA classification [1]: GAMETE; IC50 [2]: 2.14 µM; HepG2 cells mean TOX50 (HepG2 cells; HepG2 cells; mean): 37.44 µM; Pf Asexual stages XC50 [4]: 1060 nM |
| CCOc1ccc(-n2nc3c(Cl)nnc(-c4ccccc4)c3c2-c2ccccc2)cc1 [TCMDC-123899] | 230 | -0.60 |  |  | IC50 [1, 8]: > 20 µM; IC50 [1, 9]: 0.94 µM; Pf FGAA classification [1]: SLOW; IC50 [2]: > 20 µM; HepG2 cells TOX50 (HepG2 cells; HepG2 cells): >100 µM; HepG2 cells mean TOX50 (HepG2 cells; HepG2 cells; mean): >100 µM; Pf Asexual stages XC50 [4]: 310 nM |
| CCN(CC)CCN(Cc1ccc(-c2ccc(C(F)(F)F)cc2)cc1)C(=O)Cn1cc(Cc2cnn(C)c2)c(=O)nc1/C=C/c1cccc(F)c1F [TCMDC-140964] | 960 | 69.60 | 0.87 | 9.69 |  |
| CC(C)(CNC(=O)[C@H]1CCCN1)c1nc(-c2ccc(Cl)c(O)c2)c(-c2ccncc2)[nH]1.Cl [TCMDC-141060] | 1270 | -7.23 | 1.21 | 32.74 |  |
| CC1(CCN2CCC(c3c[nH]c4cnccc34)CC2)CCCc2c(Br)cccc2C1=O.Cl (stereo not drawn) [TCMDC-141171] | 190 | 10.47 | 1.73 | 5.25 |  |
| CC(C)(CN)c1cc(-c2ccc(Cl)c(O)c2)c(-c2ccncc2)o1.Cl [TCMDC-141334] | 1140 | -5.00 | 0.42 | 9.98 |  |
| CN1CCN(c2ccc(Nc3ncc([N+](=O)[O-])c(Nc4ccccc4O)n3)cc2)CC1.O=C(O)C(F)(F)F [TCMDC-141372] | 720 | -21.03 | 2.01 | 1.82 |  |
| ON=C1CCc2cc(-c3cc(-c4ccc(OC5CCNCC5)cc4)oc3-c3ccncc3)ccc21 [TCMDC-141381] | 160 | 40.68 | 0.2 | 5.01 |  |
| O=C(Nc1ccc(Cl)cc1)c1cc(Cl)cc2nc(C(F)(F)F)[nH]c12 [TCMDC-141586] | 130 | 39.06 | 1.7 | 2.82 |  |
| CN1CCCC1CCNc1ncc2c(-c3ccc(NC(=O)Nc4cc(C(F)(F)F)ccc4F)c(F)c3)nn(C)c2n1.O=C(O)C(F)(F)F (stereo not drawn) [TCMDC-141610] | 290 | -9.33 | 1.47 | 4.62 |  |
| Cc1ccc(Cn2nc(Cl)c(N3CCCNCC3)cc2=O)cc1NC(=O)Nc1ccc(-c2ccccc2)cc1.O=C(O)C(F)(F)F [TCMDC-141697] | 670 | -13.94 | 0.99 | 7.25 |  |
| Cc1c(Cn2nc(Cl)c(N3CCNCC3)cc2=O)cccc1NC(=O)Nc1ccc(-c2ccccc2)cc1.O=C(O)C(F)(F)F [TCMDC-141699] | 1380 | -8.75 | 4.91 | 4.22 |  |
| Cl.O=S(=O)(Nc1cc2c(cc1OCCCN1CCCCC1)CCNCC2)c1ccc(-c2ccc(Cl)cc2)cc1 [TCMDC-141753] | 1010 | -0.045 | 2 | 4.37 |  |
| CN1CCc2cc(NS(=O)(=O)c3ccc(-c4ccc(Cl)cc4)cc3)c(OCCCN3CCCCC3)cc2CC1.Cl [TCMDC-141754] | 960 | 6.66 | 0.97 | 2.23 |  |
| Cc1cc(F)ccc1-c1nc(NCCCNCCc2ccccc2)nc2c1ccc(=O)n2-c1c(F)cccc1F.O=C(O)C(F)(F)F [TCMDC-141804] | 190 | 82.21 | 3.61 | 12.59 |  |
| Cc1ccc(Cn2ncc(N3CCCNCC3)c(Cl)c2=O)cc1NC(=O)Nc1ccc(-c2ccccc2)cc1 [TCMDC-141924] | 630 | -4.47 | 1.73 | 7.86 |  |
| Cc1c(Cn2ncc(N3CCC(N)CC3)c(Cl)c2=O)cccc1NC(=O)Nc1ccc(-c2ccccc2)cc1.O=C(O)C(F)(F)F [TCMDC-141931] | 700 | 22.47 | 1.09 | 22.90 |  |
| O=C(O)CCSSc1cccc[n+]1[O-] [TCMDC-141973] | 810 | 100.49 | 0.04 | 19.05 |  |
| Nc1nc(N)c2cc(NC(=O)c3ccc(Cl)c(Cl)c3)ccc2n1 [TCMDC-141982] | 150 | 1.96 | 1.59 | 2.14 |  |
| Cl.OC(CNCCCCCCNCC(O)c1ccc(Cl)c(Cl)c1)c1ccc(Cl)c(Cl)c1 (stereo not drawn) [TCMDC-141987] | 920 | 0.38 | 0.9 | 4.27 |  |
| Cl.N=C1C=C(N)C(=O)c2ccccc21 [TCMDC-141992] | 1050 | 55.55 | 11.9 | 0.52 |  |
| CCn1c2ccccc2c2cc(C=NN=c3cc(C)[nH]c4ccccc34)ccc21 [TCMDC-142186] | 310 | 36.64 | 4.15 | 5.82 |  |
| Cc1c(N=O)cc(C(C)(C)C)c(O)c1C(=O)Nc1ccc([N+](=O)[O-])cc1Cl [TCMDC-142233] | 770 | -7.78 | 1.17 | 1.78 |  |
| Cl.Nc1c(I)cc(C(=O)Nc2ccc3nc4c(c(N)c3c2)CCCC4)cc1I [TCMDC-142289] | 140 | 70.94 | 0.78 | 4.52 |  |
| O=c1c(NCCCN(Cc2ccc(F)cc2)c2ccccn2)c(NCc2cccnc2)c1=O [TCMDC-142311] | 60 | 58.25 | 0.36 | >100 |  |
